The record followed here is ChEMBL document CHEMBL4609972, “Histone deacetylase 8 (HDAC8) and its inhibitors with selectivity to other isoforms: An overview” (Eur J Med Chem, 2019).

The target of assay [1] is T1, Protein deacetylase HDAC6 (Homo sapiens, UniProt Q9UBN7).
T1 sequence (Q9UBN7 whole entry): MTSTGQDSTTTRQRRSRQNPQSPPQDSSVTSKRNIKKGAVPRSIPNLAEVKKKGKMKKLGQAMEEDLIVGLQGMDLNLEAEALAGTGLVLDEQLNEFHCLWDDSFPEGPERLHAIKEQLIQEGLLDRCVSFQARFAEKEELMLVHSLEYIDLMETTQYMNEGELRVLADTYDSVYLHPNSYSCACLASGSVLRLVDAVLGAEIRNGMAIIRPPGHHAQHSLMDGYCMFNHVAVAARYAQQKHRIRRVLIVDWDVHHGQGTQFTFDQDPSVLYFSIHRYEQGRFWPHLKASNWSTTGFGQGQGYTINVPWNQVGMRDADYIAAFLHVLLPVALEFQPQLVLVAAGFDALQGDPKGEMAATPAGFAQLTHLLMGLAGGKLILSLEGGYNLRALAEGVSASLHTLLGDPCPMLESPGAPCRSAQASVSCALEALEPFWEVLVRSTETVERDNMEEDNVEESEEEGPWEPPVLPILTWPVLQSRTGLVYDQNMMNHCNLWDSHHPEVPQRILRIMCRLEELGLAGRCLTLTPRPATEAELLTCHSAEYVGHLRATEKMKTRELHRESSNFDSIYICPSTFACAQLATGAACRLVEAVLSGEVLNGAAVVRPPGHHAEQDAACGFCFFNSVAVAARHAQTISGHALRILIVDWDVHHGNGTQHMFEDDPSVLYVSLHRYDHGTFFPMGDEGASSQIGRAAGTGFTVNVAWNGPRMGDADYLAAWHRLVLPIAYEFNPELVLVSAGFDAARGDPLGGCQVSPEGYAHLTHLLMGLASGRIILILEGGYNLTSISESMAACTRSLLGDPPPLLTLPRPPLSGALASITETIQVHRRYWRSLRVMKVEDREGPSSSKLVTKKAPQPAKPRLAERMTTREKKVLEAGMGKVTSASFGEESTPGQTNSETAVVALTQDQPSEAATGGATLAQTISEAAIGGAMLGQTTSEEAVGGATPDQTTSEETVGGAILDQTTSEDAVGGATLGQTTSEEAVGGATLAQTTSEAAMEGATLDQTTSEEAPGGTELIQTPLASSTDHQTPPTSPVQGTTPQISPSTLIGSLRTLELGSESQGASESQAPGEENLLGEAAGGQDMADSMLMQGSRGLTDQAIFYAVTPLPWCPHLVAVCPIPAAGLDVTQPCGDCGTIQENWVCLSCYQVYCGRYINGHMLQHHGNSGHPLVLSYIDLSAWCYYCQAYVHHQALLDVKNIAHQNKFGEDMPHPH
Kind of assay: Inhibition of HDAC6 (unknown origin).

Assay [2] concerns the target 72 kDa type IV collagenase (Homo sapiens, UniProt P08253). The assay is described as follows: Inhibition of MMP2 (unknown origin).
For another assay, the target named is T2, Histone deacetylase 8 (Homo sapiens, UniProt Q9BY41).
T2 sequence (Q9BY41 whole entry): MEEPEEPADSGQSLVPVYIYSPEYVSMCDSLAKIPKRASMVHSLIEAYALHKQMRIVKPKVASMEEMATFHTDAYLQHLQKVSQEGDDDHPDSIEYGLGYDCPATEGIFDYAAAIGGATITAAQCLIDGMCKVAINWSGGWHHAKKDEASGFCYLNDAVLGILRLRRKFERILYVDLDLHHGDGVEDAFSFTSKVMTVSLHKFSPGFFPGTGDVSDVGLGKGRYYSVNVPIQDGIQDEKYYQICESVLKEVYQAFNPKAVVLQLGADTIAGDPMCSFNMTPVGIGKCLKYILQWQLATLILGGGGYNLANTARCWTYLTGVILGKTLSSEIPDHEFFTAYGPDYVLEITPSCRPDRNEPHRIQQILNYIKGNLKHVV
Kind of assay: Inhibition of HDAC8 (unknown origin).

The target of the next assay is Histone deacetylase. The assay is described as follows: Inhibition of HDAC (unknown origin). The class given is protein assay, Homo sapiens.

Square brackets hold non-standard residues; d marks the D form. Peptide text beside a SMILES is read from it. * marks the point of attachment. Asu = N[C@@H](CCCCCC(=O)O)C(=O)O; NHOH = ON*

72 kDa type IV collagenase, sequence (P08253 whole entry): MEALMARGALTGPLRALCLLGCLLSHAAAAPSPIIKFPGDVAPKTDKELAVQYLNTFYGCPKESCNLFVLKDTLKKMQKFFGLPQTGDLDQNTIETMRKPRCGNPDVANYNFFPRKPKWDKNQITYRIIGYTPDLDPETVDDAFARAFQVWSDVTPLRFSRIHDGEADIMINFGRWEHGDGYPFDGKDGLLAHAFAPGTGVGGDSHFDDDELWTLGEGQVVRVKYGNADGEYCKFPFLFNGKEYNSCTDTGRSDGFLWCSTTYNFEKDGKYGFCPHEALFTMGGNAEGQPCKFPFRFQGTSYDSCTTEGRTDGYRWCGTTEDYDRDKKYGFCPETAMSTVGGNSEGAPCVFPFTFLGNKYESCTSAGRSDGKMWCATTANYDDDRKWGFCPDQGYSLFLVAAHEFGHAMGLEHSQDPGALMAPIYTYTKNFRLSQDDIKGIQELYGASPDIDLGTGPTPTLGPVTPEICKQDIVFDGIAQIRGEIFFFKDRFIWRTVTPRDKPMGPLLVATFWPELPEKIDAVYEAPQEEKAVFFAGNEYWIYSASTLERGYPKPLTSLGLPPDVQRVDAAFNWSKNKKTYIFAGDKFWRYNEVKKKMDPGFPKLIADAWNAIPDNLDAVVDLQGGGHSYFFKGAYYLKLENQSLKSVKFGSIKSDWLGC

As for `O=C(NO)c1ccc(CN(CCO)C(=O)Cc2ccccc2)cc1`, the IC50 (commonly the concentration that gives 50% inhibition) in assay [1] came out at 376 nM.
Consider `O=C(O)CC[C@@H](NC(=O)Cc1ccc(Br)cc1)C(=O)NCc1ccc([N+](=O)[O-])cc1`, for which the IC50 (in assay [2]; against Histone deacetylase 8) was 2890 nM each time.
At Histone deacetylase 8, `O=C(CCCCCNC(=O)c1ccc(NC(=O)NC(C(=O)Nc2cccc(C(F)(F)F)c2)c2ccccc2)cc1)NO` (centres undefined) yielded an IC50 of 967 nM.
`O=C(CCCCCCC(=O)Nc1cc(C(F)(F)F)ccc1Cl)NO` yielded an IC50 against Histone deacetylase 8 of 119 nM. This IC50 lies about 8.1-fold lower than the previous one.
For the compound `O=C(NO)c1cccc(-c2nc(CSc3ccccc3)n[nH]2)c1`, half-maximal inhibition at Histone deacetylase 8 (IC50) required 53 nM.
`O=C(NO)c1ccc(NCc2csc3ccccc23)cc1` yielded an IC50 in assay [1] of 1400 nM.
`CC(C)[C@@H](C#Cc1ccc(C(=O)NO)cc1)NC(=O)C1Cc2ccccc2O1` (some centres undefined) displayed an IC50 in assay [1] of 417 nM.
Compound `CC[C@H](C)[C@@H]1NC(=O)[C@@H](Cc2ccc(OC)cc2)NC(=O)[C@H](CCCCCC(=O)NO)NC(=O)[C@H]2CCCN2C1=O` (cyclo([Asu](NHOH)[dY](Me)I[dP])) returned an IC50 against Histone deacetylase of 3.32 nM.
